Test results as given in patent US20220370471A1, “COMPOSITION AND METHOD FOR TREATMENT OF HIPPOCAMPAL SYNAPSE DYSFUNCTION AND COGNITIVE DEFICITS IN ALZHEIMER'S DISEASE” (BOARD OF REGENTS, THE UNIVERSITY OF TEXAS SYSTEM, priority 2019, published 2022).

Assays:
[1] = test system: 5×FAD mice; assay: Microglia density, morphology and plaque-associated microglia analysis; type: in vivo, mouse
Method: Immunocytochemistry. Frozen sections were prepared as previously described. […] Nuclei were labeled with 4′,6-diamidino-2-phenylindole (DAPI, Thermo Fisher Scientific, #R37606, 1 drop/500 ul) as needed. Images were collected on a Nikon confocal microscope. Microglia morphology and plaque-associated microglia density analysis. Analysis of microglia morphology was done by producing three-dimensional (3D) reconstructions of cells using Imaris software (Bitplane, Imaris×64 9.0.2)[49]. Using the Filament algorithm, the software was able to calculate the length of each cell dendrite and number of branch points. This was done by first selecting the appropriate region of interest for the desired cell. If there were nearby cells, the somas of those cells were included in the region of interest. Since the software builds the dendrites based on extension from the largest set diameter, doing this can prevent unwanted filaments bridging the dendrites of two or more cells. The dendrite diameter parameters were set with the largest diameter being the soma size and the smallest diameter at 0.5 μm. To further prevent unwanted connections, the option to ‘Remove disconnected segments’ was used in the dendrite building menu with the distance threshold set at 5 μm. After the algorithm finished detecting the dendrites, non-specifically detected filaments were manually trimmed. Dendrite length and branch points were then calculated by the software. Plaque-associated microglia density was analyzed by using NIS element software. Microglia were counted under the following rule: if more than 50% of the microglia soma was within a plaque, it was counted as one plaque-associated microglia. Plaque volume was analyzed as described in the previous section (amyloid plaque deposition analysis).

[2] = test system: 5×FAD mice; assay: Neurogenesis (DCX staining) in the dentate gyrus; type: in vivo, mouse; settings: MK0677 1.5 mg/kg, daily i.p., one month
Method: (§1) Immunocytochemistry. […] NIS element software was used for image analysis. “Objective Count” dialog was used for intensity measurement. […] The overlapped dots represent synapses.
Neurogenesis analysis. Neurogenesis in the hippocampal dentate gyms (DG) area was presented by performing doublecortin (DCX) staining in fixed brain slices as previously described. DCX-positive (DCX^+) cell number was counted manually. The DG area was measured using NIS element software. DCX cell density was calculated by dividing the DCX cell number by the DG area to evaluate neurogenesis.

[3] = test system: patients with AD; settings: clinical trial; cited from earlier work
[4] = biological target: T1, Ghsr1α/Drd1 complex (Mus musculus, UniProt Q61616+Q99P50); assay: Duolink PLA of Ghsr1α/Drd1 complex in cultured hippocampal neurons; type: cell-based; settings: oligomeric Aβ42 1 μM, 24 hours; 1.5 μM MK0677, 2 μM SKF81297, or in combination
T1 construct: endogenous in cells; host or cells: primary mouse hippocampal neurons (P0-1, DIV14)
Source text: (§2) Duolink In Situ Proximity Ligation Assay (PLA). […] PLA analysis was referred to previous report (66 67). NIH Image J was used for PLA signal quantification.
(§3) Agonist treatment on primary cultured neurons. […] The exposure was followed by immunostaining to examine the effects of Ghsr1α/Drd1 co-activation on Aβ induced synaptic loss or Ghsr1α/Drd1, Aβ/Ghsr1α interaction as described in previous sections.

[5] = biological target: Ghsr1α (Homo sapiens, UniProt Q92847); settings: cited from earlier work
[6] = test system: 5×FAD mice; assay: Survival of mice under daily MK0677 i.p. injection; type: in vivo, mouse; settings: 30 days
Method: To determine whether MK0677 mitigates hippocampal lesions in 5×FAD mice, the inventor first sought to determine the optimal dose of MK0677. 5×FAD mice at 3 months old received either saline or MK0677 at 1.5 or 3 mg/kg via daily i.p. injection for 30 days (FIGS. 12a). 5×FAD mice at 3 months old have little to no hippocampal lesions and indiscernible behavioral change, both of which become prominent at 4 months of age (the endpoint of treatment). The doses of MK0677 were chosen based on previous studies. […] The inventor therefore selected 5×FAD mice that received the 1.5 mg/kg dose of MK0677 for biological response assays. Next, he examined the impact of MK0677 treatment on hippocampal Aβ deposition in 5×FAD mice. To this end, immunofluorescent staining using the specific antibody against Aβ was performed to visualize Aβ plaques.
(§4) Mice and agonist treatment.

[7] = biological target: T2, Aβ/Ghsr1α complex (Mus musculus, UniProt Q99P50); assay: Duolink PLA of Aβ/Ghsr1α complex in cultured hippocampal neurons; type: cell-based; settings: oligomeric Aβ42 1 μM, 24 hours; 1.5 μM MK0677, 2 μM SKF81297, or in combination
T2 construct: endogenous in cells; host or cells: primary mouse hippocampal neurons; Aβ42 peptide purchased (GenicBio, A-43-T-1000)
Source text: as §2, §3

[8] = test system: hippocampal CA3-CA1 pathway; assay: Long-term potentiation (fEPSP) in hippocampal slices; settings: MK0677 1.5 μM, SKF81297 2 μM, alone or in combination
Method: For electrophysiological experiments, mice were anesthetized with isoflurane and decapitated. […] Slices were allowed to rest for 30 minutes after being transferred to the recording chamber before recordings began. Recordings of local field potentials (LFPs) were performed on an Axon Multiclamp 700B amplifier (Molecular Devices), and data were acquired and analyzed using AxoGraph X (AxoGraph Scientific). A tungsten concentric bipolar microelectrode (World Precision Instruments), and a recording glass electrode (1.5 MS2) filled with recording ACSF, were placed approximately 200 μm apart in the Schaffer collateral-commissural pathway in the CA1 region of the hippocampus. Pulses were delivered in 30 seconds intervals. Before baseline recordings commenced, input-output curves were taken, using 25-150 μA stimulation currents in 25 μA steps. Three sweeps were sampled at each stimulation intensity and averaged to represent the voltage response at each step. Recordings of baseline responses lasted for at least 40 minutes. Stimulation intensity was set to approximately 40% of the minimum intensity required to evoke the maximum response (based on the input-output curve). The stimulation intensity was kept consistent throughout the duration of the experiment. […] LTP was induced using a theta burst stimulation (TBS) protocol consisting of 10 bursts (5 pulses at 100 Hz) repeated at 5 Hz delivered two times 30 seconds apart. After LTP induction, LFPs were recorded for an additional 60 minutes. The slope of the field excitatory postsynaptic potential (fEPSP) was measured in Axograph scientific software and sweeps were averaged in bins of 5 for both the baseline and post LTP induction periods. Changes in LFPs are expressed as percentage change from the averaged baseline values.

[9] = test system: 5×FAD mice; assay: Morris water maze test; settings: MK0677 1.5 mg/kg, daily i.p., one month
Method: Mice and agonist treatment. […] Mice were used in pairs of age-matched non-transgenic mice (non-TG). Genotypes of animals were confirmed using PCR and/or amyloid plaque staining. The number of mice used was determined by previous data and calculations to ensure that the minimal number of mice as required was used in these experiments. […] Mouse body weight was recorded every five days until euthanasia. After the 1-month treatment, the mice were subjected to the Morris water maze behavioral test and then euthanized for tissue collection following IACUC-approved procedures.
Mouse behavioral test. The Morris water maze test was performed as previously described in order to test changes in mouse spatial learning and memory [3, 50]. Mice were randomly grouped by gender, genotypes and treatments (which the experimenter was blind to) and then transferred to the testing environment at least 0.5 hours before tests. During the test, mice were trained to find a hidden platform (20 cm diameter) in an open swimming pool (200 cm diameter) filled with 21° C. water (non-toxic white dye was used to hide the platform). Four trials were performed each day for 12 days. Each trial started at a different position (NW, N, E, SE) while the platform was kept in the same location (SW). […] Probe results were analyzed using the platform location crossed frequency value.

[10] = test system: 5×FAD mice; assay: Synaptic density in hippocampal CA1 region of treated mice; type: in vivo, mouse; settings: MK0677 1.5 mg/kg, daily i.p., one month
Method: as §1
Synaptic density analysis. For synaptic density analysis, vesicular glutamate transporter 1(vGlutl)- and postsynaptic density 95 (PSD95)-stained channels were saved as two binary layers, the threshold for each channel defined separately and then applied to all the images. The overlapping areas were analyzed by using the “AND” operation in the “Binary Operation” dialogs of NIS element software. Hippocampal volume was measured as described in the previous section (amyloid plaque deposition analysis). The overlapping dots represent synapses and average synapse number per selected area volume was calculated to represent synaptic density.

[11] = Mouse body weight during treatment; type: in vivo; settings: MK0677 1.5 mg/kg, daily i.p.
Source text: Agonist treatment on mice.
as §4

[12] = biological target: T3, Ghsr1α (Mus musculus, UniProt Q99P50, INS247CCPGCC); assay: FlAsH-based FRET assay of Ghsr1α activity in HEK 293T cells; type: cell-based; settings: 50 μM; Ghsr1α FlAsH/ECFP-expressing HEK 293T cells
T3 construct: Mouse full length Ghsr1α cDNA (NCBI Gene ID: 208188) was purchased from OriGene (MR226073); expressed in transfected cells; host or cells: HEK 293T
Source text: FlAsH-based FRET was created by structural dynamics of Ghsr1α with FlAsH in the intercellular loop 3 and enhanced cyan fluorescent protein (ECFP) in the C-terminus (Ghsr1α^FlAsH/ECFP).
FlAsH-based FRET. […] The CCPGCC motif which has higher binding affinity for FlAsH was inserted in the third intracellular loop between Va1247 and Gly248 of Ghsr1α cDNA or between Thr245 and Gly246 of Drd1 cDNA. […] Fluorescence signals were monitored on microplate reader (BioTek Cytation 5) before and after the treatments. […] Area scanning read mode was used to correct artificial inaccuracies. The FRET ratio (FFlAsH/FECFP) was calculated according to equation as previously reported (69):
The terms a and b are correction factors for the two leakages mentioned above. a is the ratio of the direct emission of donor, ECFP at 535 nm, to its emission at 475 nm when excited at 425 nm which was calculated with cells transfected with pcDNA3-Ghsr1α^FlAsH/ECFP or pcDNA3-Drd1^FlAsH/ECFP only. b is the ratio of the direct emission of FlAsH at 535 nm when excited at 425 nm to its emission at 535 nm when excited at 500 nm which was calculated with FlAsH labeled untransfected cells.

[13] = MK0677 1.5 mg/kg, daily i.p., one month
[14] = saline- vs MK0677-treated 5×FAD mice

T3 sequence (Q99P50 with tags, fused parts or gaps INS247CCPGCC): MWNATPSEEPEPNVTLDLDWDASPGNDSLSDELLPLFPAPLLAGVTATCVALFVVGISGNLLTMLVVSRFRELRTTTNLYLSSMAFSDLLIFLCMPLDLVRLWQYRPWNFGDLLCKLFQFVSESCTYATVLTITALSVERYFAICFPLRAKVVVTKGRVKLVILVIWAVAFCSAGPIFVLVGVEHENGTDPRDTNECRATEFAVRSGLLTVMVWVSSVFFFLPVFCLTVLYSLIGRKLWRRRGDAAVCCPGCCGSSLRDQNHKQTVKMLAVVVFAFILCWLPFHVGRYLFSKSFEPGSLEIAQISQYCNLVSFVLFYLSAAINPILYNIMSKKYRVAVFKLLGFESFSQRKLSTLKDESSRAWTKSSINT
T2 sequence (Q99P50 whole entry): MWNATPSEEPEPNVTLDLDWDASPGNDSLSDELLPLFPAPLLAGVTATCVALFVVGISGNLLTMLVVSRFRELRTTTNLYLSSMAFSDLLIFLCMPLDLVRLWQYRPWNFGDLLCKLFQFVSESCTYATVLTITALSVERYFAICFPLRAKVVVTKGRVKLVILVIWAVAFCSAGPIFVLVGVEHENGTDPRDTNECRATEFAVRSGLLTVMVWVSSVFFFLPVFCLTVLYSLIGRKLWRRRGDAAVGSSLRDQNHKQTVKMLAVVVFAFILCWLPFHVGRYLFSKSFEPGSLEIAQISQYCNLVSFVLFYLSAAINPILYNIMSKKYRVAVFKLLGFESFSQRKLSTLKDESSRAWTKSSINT
T2 sequence (Q61616 whole entry, further chain): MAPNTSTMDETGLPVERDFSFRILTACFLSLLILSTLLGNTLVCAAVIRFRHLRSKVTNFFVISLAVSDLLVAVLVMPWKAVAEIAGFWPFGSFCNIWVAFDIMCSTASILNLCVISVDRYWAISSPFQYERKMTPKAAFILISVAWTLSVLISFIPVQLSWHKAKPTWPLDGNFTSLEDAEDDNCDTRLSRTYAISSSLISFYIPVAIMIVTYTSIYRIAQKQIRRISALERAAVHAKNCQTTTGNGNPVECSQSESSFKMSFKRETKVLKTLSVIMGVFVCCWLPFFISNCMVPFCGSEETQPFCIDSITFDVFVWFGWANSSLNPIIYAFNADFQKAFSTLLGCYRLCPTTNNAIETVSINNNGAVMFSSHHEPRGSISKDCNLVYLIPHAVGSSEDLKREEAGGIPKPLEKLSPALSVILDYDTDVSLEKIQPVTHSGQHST
T1 sequence (Q99P50 whole entry): as the sequence (Q99P50 whole entry) above
T1 sequence (Q61616 whole entry): as the sequence (Q61616 whole entry, further chain) above
Ghsr1α (Homo sapiens, UniProt Q92847), sequence (Q92847 whole entry): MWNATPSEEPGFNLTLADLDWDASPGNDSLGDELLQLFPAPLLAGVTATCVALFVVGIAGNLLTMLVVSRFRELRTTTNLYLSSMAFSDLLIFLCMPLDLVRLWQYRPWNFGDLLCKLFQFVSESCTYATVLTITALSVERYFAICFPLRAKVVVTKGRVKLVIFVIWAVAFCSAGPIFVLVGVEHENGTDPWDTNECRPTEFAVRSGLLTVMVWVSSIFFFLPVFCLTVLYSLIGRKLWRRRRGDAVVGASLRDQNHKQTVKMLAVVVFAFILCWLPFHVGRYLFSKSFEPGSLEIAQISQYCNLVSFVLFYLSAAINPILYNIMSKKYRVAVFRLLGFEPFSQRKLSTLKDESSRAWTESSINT

SMILES: CC(C)(N)C(=O)N[C@H](COCc1ccccc1)C(=O)N1CCC2(CC1)CN(S(C)(=O)=O)c1ccccc12 [MK0677]
- increased microglial density in the hippocampus, 5×FAD mice [1, 13]: not prevented
- microglia density, non-TG saline vs MK0677 [1, 13]: no significant difference
- density of plaque-associated microglia, neocortex ([1]; MK0677-treated 5×FAD mice): failed to show any influence
- density of total microglia, neocortex ([1]; MK0677-treated 5×FAD mice): failed to show any influence
- density of plaque-associated microglia, hippocampus [1, 14]: no significant difference
- microglia length of total process [1, 14]: no significant difference
- microglia number of branch points [1, 14]: no significant difference
- DCX+ cells, non-TG saline vs non-TG MK0677 [2]: no significant difference
- DCX-positive cells in dentate gyri, 5×FAD mice [2]: remarkably augmented number of DCX-positive cells
- DCX-positive cells, Ghsr null mice [2]: no response
- clinical benefits in patients with AD [3]: failed to show clinical benefits
- Ghsr1α/Drd1 complex formation [4]: not the agonists alone
- potency relative to ghrelin [5]: higher potency than ghrelin
- 5×FAD mouse survival vs saline ([6]; MK0677 1.5 mg/kg): little effect
- mortality of 5×FAD mice ([6]; MK0677 3 mg/kg): significantly increased the mortality
- Aβ/Ghsr1α complex formation [7]: not MK0677 or SKF81297 alone
- stimulus-evoked hippocampal LTP in 5×FAD slices ([8]; slices from 4 month-old 5×FAD mice): no effect
- hippocampal LTP in non-Tg slices ([8]; slices from 4 month-old non-Tg mice): no effect
- spatial reference learning and memory (genotypic cognitive impairment) [9]: failed to show any protective effect
- synaptic density, non-TG saline vs MK0677 [10]: no significant difference
- synaptic loss in CA1 region, 5×FAD mice [10]: not significantly attenuated
- mouse body weight [11]: did not affect mouse body weight
- FRET ratio (FFlAsH/FECFP), agonist-induced Ghsr1α activation [12]: induced a decrease in FRET ratio
